Results from patent publication US10377718B2, “Apelin receptor (APJ) agonists and uses thereof” (Research Triangle Institute, priority 2014, dated 2019).
Like-named read-outs stand apart in the source and are kept apart here.

Biological target: T1, apelin receptor (APJ) (Homo sapiens, UniProt P35414)
T1 sequence (P35414 1-380): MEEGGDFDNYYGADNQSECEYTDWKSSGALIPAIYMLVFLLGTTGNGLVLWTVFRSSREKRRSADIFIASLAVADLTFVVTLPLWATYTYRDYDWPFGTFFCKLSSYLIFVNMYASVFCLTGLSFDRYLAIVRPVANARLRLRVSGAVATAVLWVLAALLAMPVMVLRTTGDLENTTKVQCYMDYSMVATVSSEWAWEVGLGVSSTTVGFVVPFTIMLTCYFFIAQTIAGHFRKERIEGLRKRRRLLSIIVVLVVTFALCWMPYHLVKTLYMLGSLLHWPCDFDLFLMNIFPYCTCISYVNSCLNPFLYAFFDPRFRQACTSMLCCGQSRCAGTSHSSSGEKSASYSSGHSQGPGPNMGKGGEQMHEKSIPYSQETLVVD
Assay: in vitro apelin agonist activity (methods of Giddings et al., Apelin-13 as positive control)
Type: cell-based
From the text: The compounds above were studied for their in vitro activity as apelin agonists using the methods described by Giddings et al. Giddings et al., 2010 Int J High Thro Screen. 1:39-47, the contents of which are hereby incorporated by reference in its entirety.

[1] = apelin agonist activity, Giddings et al. method, read-out: agonist activity (EC50)

Row | EC50 [1] | SMILES | also measured
1 | < 10 µM | COc1cccc(OC)c1-c1cc(C(=O)N[C@H](CC(=O)NCCO)CC(C)C)nn1CC(C)C [compound 142, (S)-5-(2,6-Dimethoxyphenyl)-N-(1-((2-hydroxyethyl)amino)-5-methyl-1-oxohexan-3-yl)-1-isobutyl-1H-pyrazole-3-carboxamide] | –
2 | < 10 µM | CCCCNC(=O)C[C@@H](CC(C)C)NC(=O)c1cc(-c2c(OC)cccc2OC)n(CC(C)C)n1 [compound 153] | –
3 | < 10 µM | CCCCCCNC(=O)C[C@H](CC(C)C)NC(=O)c1cc(-c2c(OC)cccc2OC)n(CC(C)C)n1 [compound 154, (S)-5-(2,6-Dimethoxyphenyl)-N-(1-(hexylamino)-5-methyl-1-oxohexan-3-yl)-1-isobutyl-1H-pyrazole-3-carboxamide] | –
4 | < 10 µM | COc1cccc(OC)c1-c1cc(C(=O)N[C@H](CC(=O)NCC2CCCCC2)CC(C)C)nn1CC(C)C [compound 155, (S)—N-(1-((Cyclohexylmethyl)amino)-5-methyl-1-oxohexan-3-yl)-5-(2,6-dimethoxyphenyl)-1-isobutyl-1H-pyrazole-3-carboxamide] | –
5 | < 10 µM | CCCCCNC(=O)C[C@H](CC(C)C)NC(=O)c1cc(-c2c(OC)cccc2OC)n(CC(C)C)n1 [compound 156, (S)-5-(2,6-Dimethoxyphenyl)-1-isobutyl-N-(5-methyl-1-oxo-1-(pentylamino)hexan-3-yl)-1H-pyrazole-3-carboxamide] | –
6 | < 10 µM | CCCNC(=O)C[C@H](CC(C)C)NC(=O)c1cc(-c2c(OC)cccc2OC)n(CC(C)C)n1 [compound 157, (S)-5-(2,6-dimethoxyphenyl)-1-isobutyl-N-(5-methyl-1-oxo-1-(propylamino)hexan-3-yl)-1H-pyrazole-3-carboxamide] | –
7 | < 10 µM | CCNC(=O)C[C@H](CC(C)C)NC(=O)c1cc(-c2c(OC)cccc2OC)n(CC(C)C)n1 [compound 161, (S)-5-(2,6-Dimethoxyphenyl)-N-(1-(ethylamino)-5-methyl-1-oxohexan-3-yl)-1-isobutyl-1H-pyrazole-3-carboxamide] | –
8 | < 10 µM | COc1cccc(OC)c1-c1cc(C(=O)N[C@H](CC(=O)NC(C)C)CC(C)C)nn1CC(C)C [compound 162] | –
9 | < 10 µM | COc1cccc(OC)c1-c1cc(C(=O)N[C@H](CC(=O)Nc2ccc(F)cc2)CC(C)C)nn1CC(C)C [compound 163, (S)-5-(2,6-Dimethoxyphenyl)-N-(1-((4-fluorophenyl)amino)-5-methyl-1-oxohexan-3-yl)-1-isobutyl-1H-pyrazole-3-carboxamide] | –
10 | < 10 µM | COC(=O)C[C@H](CC(C)C)NC(=O)c1cc(-c2c(OC)cccc2OC)n(CC(C)C)n1 [compound 164] | –
11 | < 10 µM | COc1c(F)cc(F)c(OC)c1-c1cc(C(=O)N[C@H](CC(=O)O)CC(C)C)nn1CC(C)C [compound 167] | –
12 | < 10 µM | CCCCNC(=O)C[C@H](CC(C)C)NC(=O)c1cc(-c2c(OC)c(F)cc(F)c2OC)n(CC(C)C)n1 [compound 168] | –
13 | – | COc1cccc(OC)c1-c1cc(C(=O)N[C@H](C(=O)O)C2CCCCC2)nn1CC(C)C [compound 169, (S)-2-Cyclohexyl-2-(5-(2,6-dimethoxyphenyl)-1-isobutyl-1H-pyrazole-3-carboxamido)acetic acid] | EC50: < 10 µM
14 | < 10 µM | CCCN(C)C(=O)C[C@H](CC(C)C)NC(=O)c1cc(-c2c(OC)cccc2OC)n(CC(C)C)n1 [compound 171] | –
15 | < 10 µM | COc1cccc(OC)c1-c1cc(C(=O)N[C@H](CC(=O)NC2CC2)CC(C)C)nn1CC(C)C [compound 172] | –
16 | < 10 µM | COc1cccc(OC)c1-c1cc(C(=O)N[C@H](CC(=O)NCC(=O)O)CC(C)C)nn1CC(C)C [compound 174] | –
17 | < 10 µM | COc1cccc(OC)c1-c1cc(C(=O)N[C@H](CC(=O)NCC(N)=O)CC(C)C)nn1CC(C)C [compound 175] | –
18 | < 10 µM | CNC(=O)CNC(=O)C[C@H](CC(C)C)NC(=O)c1cc(-c2c(OC)cccc2OC)n(CC(C)C)n1 [compound 176] | –
19 | < 10 µM | COc1cccc(OC)c1-c1cc(C(=O)N[C@H](CC(=O)O)CC(C)C)nn1CC1CC1 [compound 181] | –
20 | < 10 µM | COc1cccc(OC)c1-c1cc(C(=O)N[C@H](CC(=O)O)CC(C)C)nn1C1CCCC1 [compound 182] | –
21 | < 10 µM | COC(=O)CNC(=O)C[C@H](CC(C)C)NC(=O)c1cc(-c2c(OC)cccc2OC)n(CC2CC2)n1 [compound 183] | –

Row | EC50 [1] | SMILES | also measured
22 | < 10 µM | COC(=O)CNC(=O)C[C@H](CC(C)C)NC(=O)c1cc(-c2c(OC)cccc2OC)n(C2CCCC2)n1 [compound 184] | –
23 | < 10 µM | COc1cccc(OC)c1-c1cc(C(=O)N[C@H](CC(=O)NC2CCCC2)CC(C)C)nn1CC(C)C [compound 185] | –
24 | < 10 µM | CCCn1nc(C(=O)N[C@H](CC(=O)NCC(=O)OC)CC(C)C)cc1-c1c(OC)cccc1OC [compound 186] | –
25 | < 10 µM | COC(=O)CNC(=O)C[C@H](CC(C)C)NC(=O)c1cc(-c2c(OC)cccc2OC)n(CC(C)(C)C)n1 [compound 187] | –
26 | < 10 µM | COC(=O)CNC(=O)[C@H](CC(C)C)NC(=O)c1cc(-c2c(OC)cccc2OC)n(CC(C)C)n1 [compound 188] | –
27 | < 10 µM | COC(=O)CNC(=O)[C@H](CC(C)C)NC(=O)c1cc(-c2c(OC)cccc2OC)n(C2CCCCC2)n1 [compound 189] | –
28 | < 10 µM | CCOC(=O)CCNC(=O)[C@H](CC(C)C)NC(=O)c1cc(-c2c(OC)cccc2OC)n(CC(C)C)n1 [compound 191] | –
29 | < 10 µM | COC(=O)CNC(=O)[C@H](CC1CCCCC1)NC(=O)c1cc(-c2c(OC)cccc2OC)n(CC(C)C)n1 [compound 198] | EC50 (mean based on three runs, read-out: mean activity (EC50)): 0.053 µM
30 | – | COc1cccc(OC)c1-c1cc(C(=O)N[C@@H](CC2CCCCC2)C(=O)O)nn1CC(C)C [compound 204] | EC50: < 10 µM
31 | < 10 µM | COC(=O)CNC(=O)[C@H](Cc1ccccc1)NC(=O)c1cc(-c2c(OC)cccc2OC)n(CC(C)C)n1 [compound 205] | –
32 | < 10 µM | CCCC[C@H](NC(=O)c1cc(-c2c(OC)cccc2OC)n(CC(C)C)n1)C(=O)NCC(=O)OC [compound 212] | –
33 | < 10 µM | COC(=O)CNC(=O)[C@H](CC1CCCCC1)NC(=O)c1cc(-c2cc(OC)ccc2OC)n(CC(C)C)n1 [compound 217] | –
34 | < 10 µM | COC(=O)CN(C)C(=O)C[C@H](CC(C)C)NC(=O)c1cc(-c2c(OC)cccc2OC)n(CC(C)C)n1 [compound 218] | –
35 | < 10 µM | COC(=O)CN(C)C(=O)[C@H](CC(C)C)NC(=O)c1cc(-c2c(OC)cccc2OC)n(CC(C)C)n1 [compound 219] | –
36 | < 10 µM | CCCNC(=O)[C@H](CCc1ccccc1)NC(=O)c1cc(-c2c(OC)cccc2OC)n(CC(C)C)n1 [compound 225] | –
37 | < 10 µM | COc1cccc(OC)c1-c1cc(C(=O)N[C@@H](CCc2ccccc2)C(=O)N2CCCC2)nn1CC(C)C [compound 226] | –
38 | < 10 µM | COC(=O)CNC(=O)C[C@H](CC(C)C)N(C)C(=O)c1cc(-c2c(OC)cccc2OC)n(CC(C)C)n1 [compound 238] | –
39 | < 10 µM | COC(=O)CNC(=O)C[C@H](CCCC1CCCCC1)NC(=O)c1cc(-c2c(OC)cccc2OC)n(CC(C)C)n1 [compound 242] | –
40 | < 10 µM | CCC(O)CNC(=O)C[C@H](CCN1CCCCC1)NC(=O)c1cc(-c2c(OC)cccc2OC)n(CC(C)C)n1 (stereo partly shown) [compound 245] | –
41 | < 10 µM | COc1cccc(OC)c1-c1cc(C(=O)N[C@@H](CCN2CCCCC2)CC(=O)NC2CCC2)nn1CC(C)C [compound 247] | –
42 | < 10 µM | COCCNC(=O)C[C@H](CCN1CCCCC1)NC(=O)c1cc(-c2c(OC)cccc2OC)n(CC(C)C)n1 [compound 249] | –
